Our source for the EC50 values is patent publication US10370371B2, “Substituted pyrimidine Bmi-1 inhibitors” (PTC Therapeutics, Inc., priority 2013, dated 2019).

This test deals with Bmi-1 protein. Briefly: Sandwich ELISA Assay (Bmi-1 protein level in HT-1080 cells). In kind it is cell-based. As for the experimental part: Cell Seeding and Compound Treatment (Day 1):
HT-1080 cells were seeded at 8000 cells/well (50 μL) in 96-well tissue culture plates. After the cells became adherent (3-4 hours), 2× diluted stocks of test compounds in 50 μL DMEM containing 1% DMSO (final DMSO concentration was 0.5%) were added and the plates were incubated at 37° C. under 5% CO2 for 40-48 hours.
ELISA Plate First Antibody Preparation (Day 2):
The First Antibody (Millipore Mouse, monoclonal to mouse Bmi-1, clone F6, catalog #05-637) diluted to 2 μg/mL in PBS was added (100 μL) to each well of a Nunc MaxiSorp 96-well ELISA plate. The plate was covered with a plate seal and allowed to stand overnight.
Cell Lysate Preparation (Day 3):
Fresh Lysis buffer (1×) was prepared on the day of the assay as follows: 1 mM EDTA, 150 mM NaCl, 0.5% Triton-X 100, 10 mM NaF, 20 mM B-Glycerophosphate, 1 mM DTT (in PBS, pH 7.2-7.4) and HALT protease inhibitor cocktail (1×) (Pierce #78410).
Lysis Buffer (1×, 40 μL) was added to each well and the plate was shaken for 5-10 minutes on an orbital shaker to allow cell lysis, then diluent (1% BSA in PBS in 0.5% NP40) (100 μL) was added to each well.
A standard curve was prepared at the following Bmi-1 concentrations: 8000, 4000, 2000, 1000, 500, 250, 125 and 0 pg/mL. The Bmi-1 Recombinant Protein Standard (Novus Biologicals PCGF4 Recombinant Protein (P01), catalog # H00000648-P01) used to prepare the standard curve was stored at −80° C. On first thaw, the Recombinant Protein Standard was diluted to 10 μg/μL in Blocking Buffer (1% BSA in PBS; BSA: Fisher Scientific Catalog #1600-100). Aliquots were taken and refrozen at −80° C. The aliquots may be kept at 4° C. and reused after first thaw, but only within 1-2 weeks. The Recombinant Protein Standard contains a GST-fusion tag that appears at approximately 70 Kda on Western Blot.
The prepared ELISA plate was washed 3× with Wash Buffer (0.05% Tween-20 in PBS). The final wash was removed from the plate and the plate was blotted dry. Blocking Buffer (300 μL) (1% BSA in PBS) was added to each well. The plate was covered with a plate seal and incubated at room temperature for 1 hour. The blocked plate was washed 3× with Wash Buffer, then the final wash was removed and the plate was blotted dry. The previously prepared samples and standards were added (100 μL/well) and the plate was covered with a plate seal and incubated at 4° C. overnight.
The prepared ELISA plate was removed from incubation and allowed to stand at room temperature for 30 minutes, then washed and blotted dry. The Second Antibody (Cell Signaling Rabbit anti-Bmi-1, Cat#2830) diluted to 1:600 in Blocking Buffer was added (100 μL) to each well, except as needed for background control wells. The plate was covered with a plate seal and incubated for 1.5 hrs at room temperature.
The ELISA plate was washed and blotted dry as previously described. The Third Antibody (Cell Signaling HRP conjugated anti-rabbit IgG (CellSignaling, Cat#:7074) diluted to 1:300 in Blocking Buffer was added (100 μL) to each well, except as needed for background control wells. The plate was incubated for 1 hr at room temperature.
The plate was washed and blotted dry, then a previously prepared TMB substrate (TMB substrate kit, Pierce catalog #34021) (prepared by mixing kit reagents 1:1) (100 μL) was added per well. The plate was incubated for 20-30 minutes at room temperature in the dark, then Stop Solution (2 M sulfuric acid in water) (50 μL) was added per well. The plates were read at OD450 (experimental) and OD570 (reference).

The EC50 is the midpoint of the concentration-response curve. `CCc1nc2ccc(F)cc2n1-c1nc(Nc2ccc(C(F)(F)F)cc2)nc(N)c1F` [Cpd 59, 6-(2-ethyl-6-fluoro-1H-benzimidazol-1-yl)-5-fluoro-N^2-[4-(trifluoromethyl)phenyl]pyrimidine-2,4-diamine] gave an EC50 of 100 to 3000 nM.
`Cc1nc2c(F)cc(F)cc2n1-c1cc(N)nc(Nc2ccc(OC(F)F)cc2)n1` [Cpd 60, N^2-[4-(difluoromethoxy)phenyl]-6-(4,6-difluoro-2-methyl-1H-benzimidazol-1-yl)pyrimidine-2,4-diamine]: the EC50 fell in the range of 10 to 100 nM.
Then `Nc1cc(-n2c(C3CC3)nc3ccccc32)nc(Nc2ccc(C(F)(F)F)cc2)n1` [Cpd 61, 6-(2-cyclopropyl-1H-benzimidazol-1-yl)-N^2-[4-(trifluoromethyl)phenyl]pyrimidine-2,4-diamine], with 10 to 100 nM; and `Cc1nc2ncccc2n1-c1nc(Nc2ccc(C(F)(F)F)cc2)nc(N)c1F` [Cpd 62, 5-fluoro-6-(2-methyl-1H-imidazo[4,5-b]pyridin-1-yl)-N^2-[4-(trifluoromethyl)phenyl]pyrimidine-2,4-diamine], with 100 to 3000 nM.
For `Nc1cc(-n2c(C3CC3)nc3cc(F)c(F)cc32)nc(Nc2ccc(C(F)(F)F)cc2)n1` [Cpd 64, 6-(2-cyclopropyl-5,6-difluoro-1H-benzimidazol-1-yl)-N^2-[4-(trifluoromethyl)phenyl]pyrimidine-2,4-diamine] the value was 10 to 100 nM; for `CCc1nc2cc(F)c(F)cc2n1-c1cc(N)nc(Nc2ccc(C(F)(F)F)cc2)n1` [Cpd 65, 6-(2-ethyl-5,6-difluoro-1H-benzimidazol-1-yl)-N^2-[4-(trifluoromethyl)phenyl]pyrimidine-2,4-diamine], 10 to 100 nM; for `Nc1cc(-n2c(C3CC3)nc3cc(F)c(F)cc32)nc(Nc2ccc(OC(F)F)cc2)n1` [Cpd 66, 6-(2-cyclopropyl-5,6-difluoro-1H-benzimidazol-1-yl)-N^2-[4-(difluoromethoxy)phenyl]pyrimidine-2,4-diamine], 1 to 10 nM.
For `N#Cc1cc(-n2c(C3CC3)nc3cc(F)c(F)cc32)nc(Nc2ccc(C(F)(F)F)cc2)n1` [Cpd 67, 6-(2-cyclopropyl-5,6-difluoro-1H-benzimidazol-1-yl)-2-{[4-(trifluoromethyl)phenyl]amino}pyrimidine-4-carbonitrile] the value was 100 to 3000 nM; for `Cc1nc2cc(F)c(F)cc2n1-c1cc(C#N)nc(Nc2ccc(C(F)(F)F)cc2)n1` [Cpd 68, 6-(5,6-difluoro-2-methyl-1H-benzimidazol-1-yl)-2-{[4-(trifluoromethyl)phenyl]amino}pyrimidine-4-carbonitrile], 100 to 3000 nM; for `Nc1cc(-n2c(C(F)F)nc3ccccc32)nc(Nc2ccc(C(F)(F)F)cc2)n1` [Cpd 69, 6-[2-(difluoromethyl)-1H-benzimidazol-1-yl]-N^2-[4-(trifluoromethyl)phenyl]pyrimidine-2,4-diamine], 10 to 100 nM.
In turn, `Nc1cc(-n2c(C(F)F)nc3ccc(F)cc32)nc(Nc2ccc(OC(F)F)cc2)n1` [Cpd 72, N^2-[4-(difluoromethoxy)phenyl]-6-[2-(difluoromethyl)-6-fluoro-1H-benzimidazol-1-yl]pyrimidine-2,4-diamine] displayed an EC50 of 10 to 100 nM.
For `NC(=O)c1cccc(Nc2nccc(-c3cnc4ccccn34)n2)c1` [Cpd 75, 3-{[4-(imidazo[1,2-a]pyridin-3-yl)pyrimidin-2-yl]amino}benzamide] the value was 100 to 3000 nM.
For `CCc1nc2cc(F)c(F)cc2n1-c1cc(N)nc(Nc2ccc(OC(F)F)cc2)n1` [Cpd 76, N^2-[4-(difluoromethoxy)phenyl]-6-(2-ethyl-5,6-difluoro-1H-benzimidazol-1-yl)pyrimidine-2,4-diamine] the value was 10 to 100 nM.
For `Cc1nc2cc(F)c(F)cc2n1-c1cc(N)nc(Nc2ccc(OC(F)F)cc2)n1` [Cpd 77, N^2-[4-(difluoromethoxy)phenyl]-6-(5,6-difluoro-2-methyl-1H-benzimidazol-1-yl)pyrimidine-2,4-diamine] the value was 10 to 100 nM; for `Cc1nn2ccccc2c1-c1cc(N)nc(Nc2ccc(C(F)(F)F)cc2)n1` [Cpd 82, 6-(2-methylpyrazolo[1,5-a]pyridin-3-yl)-N^2-[4-(trifluoromethyl)phenyl]pyrimidine-2,4-diamine], 10 to 100 nM.
The compound `Cc1nc2ccccc2n1-c1cc(N)nc(Nc2ccc(OC(F)F)cc2)n1` [Cpd 83, N^2-[4-(difluoromethoxy)phenyl]-6-(2-methyl-1H-benzimidazol-1-yl)pyrimidine-2,4-diamine] registered an EC50 of 10 to 100 nM.
For `CCc1nc2ccccc2n1-c1cc(N)nc(Nc2ccc(OC(F)F)cc2)n1` [Cpd 84, N^2-[4-(difluoromethoxy)phenyl]-6-(2-ethyl-1H-benzimidazol-1-yl)pyrimidine-2,4-diamine] the value was 10 to 100 nM.
Then `Nc1cc(-n2c(C3CC3)nc3ccccc32)nc(Nc2ccc(OC(F)F)cc2)n1` [Cpd 85, 6-(2-cyclopropyl-1H-benzimidazol-1-yl)-N^2-[4-(difluoromethoxy)phenyl]pyrimidine-2,4-diamine], with 10 to 100 nM; and `Nc1cc(-n2c(C3CC3)nc3cc(Cl)ccc32)nc(Nc2ccc(C(F)(F)F)cc2)n1` [Cpd 86, 6-(5-chloro-2-cyclopropyl-1H-benzimidazol-1-yl)-N^2-[4-(trifluoromethyl)phenyl]pyrimidine-2,4-diamine], with 100 to 3000 nM; and `Nc1cc(-n2c(C3CC3)nc3ccc(Cl)cc32)nc(Nc2ccc(C(F)(F)F)cc2)n1` [Cpd 87, 6-(6-chloro-2-cyclopropyl-1H-benzimidazol-1-yl)-N^2-[4-(trifluoromethyl)phenyl]pyrimidine-2,4-diamine], with 10 to 100 nM.
`CCc1nn2ccccc2c1-c1cc(N)nc(Nc2ccc(C(F)(F)F)cc2)n1` [Cpd 90, 6-(2-ethylpyrazolo[1,5-a]pyridin-3-yl)-N^2-[4-(trifluoromethyl)phenyl]pyrimidine-2,4-diamine] displayed an EC50 of 10 to 100 nM.
For `CCc1nn2ccccc2c1-c1cc(N)nc(Nc2ccc(OC(F)F)cc2)n1` [Cpd 91, N^2-[4-(difluoromethoxy)phenyl]-6-(2-ethylpyrazolo[1,5-a]pyridin-3-yl)pyrimidine-2,4-diamine] the value was 10 to 100 nM; for `Nc1cc(-n2c(C3CC3)nc3cc(Cl)ccc32)nc(Nc2ccc(OC(F)F)cc2)n1` [Cpd 92, 6-(5-chloro-2-cyclopropyl-1H-benzimidazol-1-yl)-N^2-[4-(difluoromethoxy)phenyl]pyrimidine-2,4-diamine], 10 to 100 nM.
Then `Nc1cc(-n2c(C3CC3)nc3ccc(Cl)cc32)nc(Nc2ccc(OC(F)F)cc2)n1` [Cpd 93, 6-(6-chloro-2-cyclopropyl-1H-benzimidazol-1-yl)-N^2-[4-(difluoromethoxy)phenyl]pyrimidine-2,4-diamine], with 10 to 100 nM; and `Cc1nc2ccccc2n1-c1nc(Nc2ccc(OC(F)F)cc2)nc(N)c1F` [Cpd 94, N^2-[4-(difluoromethoxy)phenyl]-5-fluoro-6-(2-methyl-1H-benzimidazol-1-yl)pyrimidine-2,4-diamine], with 10 to 100 nM.
Then `CCc1nc2ccccc2n1-c1cc(N)nc(Nc2ccc(C(F)(F)F)nc2)n1` [Cpd 95, 6-(2-ethyl-1H-benzimidazol-1-yl)-N^2-[6-(trifluoromethyl)pyridin-3-yl]pyrimidine-2,4-diamine], with 10 to 100 nM; and `CCc1nc2cc(Cl)ccc2n1-c1cc(N)nc(Nc2ccc(C(F)(F)F)cc2)n1` [Cpd 96, 6-(5-chloro-2-ethyl-1H-benzimidazol-1-yl)-N^2-[4-(trifluoromethyl)phenyl]pyrimidine-2,4-diamine], with 100 to 3000 nM; and `CCc1nc2ccc(Cl)cc2n1-c1cc(N)nc(Nc2ccc(C(F)(F)F)cc2)n1` [Cpd 97, 6-(6-chloro-2-ethyl-1H-benzimidazol-1-yl)-N^2-[4-(trifluoromethyl)phenyl]pyrimidine-2,4-diamine], with 10 to 100 nM.
